Experimental data as given in article PMC12186298, “Phase 1 clinical trial of eneboparatide, a novel PTH receptor 1 agonist” (Endocrine Connections, 2025).
Read-outs that look alike come from different tables or passages of the source. Peptide text beside a SMILES is read from it.

Key:
healthy subjects = assay: Safety and tolerability, adverse events, Part B MAD
Procedure: A total of five sequential cohorts were included in Part B with ten subjects in each cohort (eight receiving eneboparatide at a dose of 10, 20, 40, 60 and 80 μg/day, respectively, and two receiving placebo in a randomized and double-blind manner). […] They were resident in the study unit until day 17 and FU evaluation was performed on day 21–25.
Safety and tolerability assessments consisted of adverse events (AEs), clinical laboratory (clinical chemistry, haematology, coagulation, and urinalysis), vital signs (blood pressure, pulse rate, respiratory rate, and temperature), 12-lead ECG (Part B), 24 h continuous cardiac monitoring (telemetry; Part A), body weight, physical examination, injection site reaction, and measurement of antidrug antibodies (ADA) in plasma (Part B).

[1] = Plasma pharmacokinetics, multiple ascending dose (Part B); assay type: in vivo, human; details: for AUC(0–∞) / Cmax / Tmax / AUC(0-inf): Part B MAD; for Cmax: LC-MS/MS, mean ± SD
Procedure: Plasma samples were collected pre-dose and at scheduled time points up to 6 h post-dose on day 1 (Parts A and B) and day 14 (Part B). The analysis of eneboparatide in plasma samples was performed at QPS (The Netherlands) using a hybrid immunoaffinity liquid chromatography–mass spectrometry/mass spectrometry (LC-MS/MS) method, with a validated lower limit of quantification (LLOQ) of 50 pg/mL.

[2] = Part B, 60 μg/day sc 14 days, n = 8
[3] = Part B, 80 μg/day sc 14 days, n = 8
[4] = Part B, total eneboparatide, n = 40

CC[C@H](C)[C@H](NC(=O)[C@H](CCC(=O)O)NC(=O)[C@H](C)NC(=O)[C@@H](NC(=O)[C@H](Cc1c[nH]cn1)NC(=O)[C@@H](NC(=O)[C@H](CCC(=O)O)NC(=O)[C@H](C)NC(=O)[C@@H](NC(=O)[C@H](CC(C)C)NC(=O)[C@H](CCCCN)NC(=O)[C@H](Cc1c[nH]cn1)NC(=O)[C@H](CC(C)C)NC(=O)[C@H](Cc1ccccc1)NC(=O)[C@H](C)NC(=O)[C@H](CCCNC(=N)N)NC(=O)[C@H](CCCNC(=N)N)NC(=O)[C@H](CCCNC(=N)N)NC(=O)[C@H](C)NC(=O)[C@H](CC(=O)O)NC(=O)[C@H](CCC(N)=O)NC(=O)[C@@H](NC(=O)[C@H](Cc1c[nH]c2ccccc12)NC(=O)[C@H](CCCCN)NC(=O)[C@H](C)NC(=O)[C@H](CCCNC(=N)N)NC(=O)[C@H](CCC(N)=O)NC(=O)[C@H](Cc1c[nH]cn1)NC(=O)[C@H](CCSC)NC(=O)[C@H](CC(C)C)NC(=O)[C@H](CCC(N)=O)NC(=O)[C@@H](NC(=O)[C@H](CCC(=O)O)NC(=O)[C@H](C)NC(=O)[C@@H](NC(=O)[C@H](C)N)C(C)C)[C@@H](C)CC)[C@@H](C)CC)[C@@H](C)CC)[C@@H](C)CC)[C@@H](C)O)C(=O)O [eneboparatide] (H-AVAEIQLMHQRAKWIQDARRRAFLHKLIAEIHTAEI-OH; N-terminus and C-terminus assumed)
Insomnia, subjects with TEAE (healthy subjects; [2]): 1 | Muscle spasms, subjects with TEAE (healthy subjects; [2]): 0 | Myalgia, subjects with TEAE (healthy subjects; [2]): 0 | Nausea, subjects with TEAE (healthy subjects; [2]): 5 | Somnolence, subjects with TEAE (healthy subjects; [2]): 3 | Vomiting, subjects with TEAE (healthy subjects; [2]): 3 | subjects with transient hypercalcaemia (healthy subjects; Part B, 80 μg/d, well-tolerated, resolved spontaneously after day 14): six of the eight | Abdominal pain, subjects with TEAE (healthy subjects; [3]): 0 | Application site irritation, subjects with TEAE (healthy subjects; [3]): 0 | Catheter site haematoma, subjects with TEAE (healthy subjects; [3]): 1 | Catheter site pain, subjects with TEAE (healthy subjects; [3]): 1 | Decreased appetite, subjects with TEAE (healthy subjects; [3]): 0 | Diarrhoea, subjects with TEAE (healthy subjects; [3]): 0 | Dizziness, subjects with TEAE (healthy subjects; [3]): 1 | Dry skin, subjects with TEAE (healthy subjects; [3]): 0 | Dyspepsia, subjects with TEAE (healthy subjects; [3]): 0 | Fatigue, subjects with TEAE (healthy subjects; [3]): 0 | Flatulence, subjects with TEAE (healthy subjects; [3]): 0 | Headache, subjects with TEAE (healthy subjects; [3]): 1 | Injection site erythema, subjects with TEAE (healthy subjects; [3]): 2 | Injection site haematoma, subjects with TEAE (healthy subjects; [3]): 3 | Injection site pain, subjects with TEAE (healthy subjects; [3]): 0 | Injection site pruritus, subjects with TEAE (healthy subjects; [3]): 1 | Injection site tenderness, subjects with TEAE (healthy subjects; [3]): 1 | Insomnia, subjects with TEAE (healthy subjects; [3]): 0 | Muscle spasms, subjects with TEAE (healthy subjects; [3]): 0 | Myalgia, subjects with TEAE (healthy subjects; [3]): 0 | Nausea, subjects with TEAE (healthy subjects; [3]): 4 | Somnolence, subjects with TEAE (healthy subjects; [3]): 2 | Vomiting, subjects with TEAE (healthy subjects; [3]): 1 | Abdominal pain, subjects with TEAE (healthy subjects; [4]): 2 (5) n (%) | Application site irritation, subjects with TEAE (healthy subjects; [4]): 3 (7.5) n (%) | Catheter site haematoma, subjects with TEAE (healthy subjects; [4]): 5 (12.5) n (%) | Catheter site pain, subjects with TEAE (healthy subjects; [4]): 6 (15) n (%) | Decreased appetite, subjects with TEAE (healthy subjects; [4]): 3 (7.5) n (%) | Diarrhoea, subjects with TEAE (healthy subjects; [4]): 3 (7.5) n (%) | Dizziness, subjects with TEAE (healthy subjects; [4]): 3 (7.5) n (%) | Dry skin, subjects with TEAE (healthy subjects; [4]): 2 (5) n (%) | Dyspepsia, subjects with TEAE (healthy subjects; [4]): 5 (12.5) n (%) | Fatigue, subjects with TEAE (healthy subjects; [4]): 3 (7.5) n (%) | Flatulence, subjects with TEAE (healthy subjects; [4]): 4 (10) n (%) | Headache, subjects with TEAE (healthy subjects; [4]): 10 (25) n (%) | Injection site haematoma, subjects with TEAE (healthy subjects; [4]): 17 (42.5) n (%) | Injection site pain, subjects with TEAE (healthy subjects; [4]): 3 (7.5) n (%) | Injection site pruritus, subjects with TEAE (healthy subjects; [4]): 6 (15) n (%) | Injection site tenderness, subjects with TEAE (healthy subjects; [4]): 3 (7.5) n (%) | Insomnia, subjects with TEAE (healthy subjects; [4]): 3 (7.5) n (%) | Muscle spasms, subjects with TEAE (healthy subjects; [4]): 2 (5) n (%) | Myalgia, subjects with TEAE (healthy subjects; [4]): 5 (12.5) n (%) | Nausea, subjects with TEAE (healthy subjects; [4]): 12 (30) n (%) | Somnolence, subjects with TEAE (healthy subjects; [4]): 9 (22.5) n (%) | Vomiting, subjects with TEAE (healthy subjects; [4]): 4 (10) n (%) | telemetry (Part A) or ECG (Part B), blood pressure, heart rate, respiratory rate (healthy subjects; Parts A and B): No changes of clinical relevance | serious or severe AEs (healthy subjects; Parts A and B: single up to 120 μg, multiple up to 80 μg/day for 14 days): No serious or severe AEs were reported | vomiting (mild/moderate AE associated with hypercalcaemia), subjects (healthy subjects; highest doses tested): four out of 40 | AUC(0–∞) ([1]; 10 μg/day sc, Day 1, n = 4, mean ± SD): 3.26 ± 3.20 ng·h/mL | Cmax ([1]; 10 μg/day sc, Day 1, n = 4, plasma): 20.6 ± 3.43 ng/mL | Cmax ([1]; 10 μg/day sc, Day 14, n = 4, plasma): 18.4 ± 5.37 ng/mL | AUC(0–∞) ([1]; 20 μg/day sc, Day 1, n = 8, mean ± SD): 7.69 ± 5.52 ng·h/mL | Cmax ([1]; 20 μg/day sc, Day 1, n = 8, plasma): 19.6 ± 5.68 ng/mL | AUC(0–∞) ([1]; 40 μg/day sc, Day 1, n = 8, mean ± SD): 15.8 ± 11.5 ng·h/mL | Cmax ([1]; 40 μg/day sc, Day 1, n = 8, plasma): 23.8 ± 8.97 ng/mL | Tmax ([1]; 40 μg/day sc, Day 14, n = 8, median): 10.2 min | AUC(0–∞) ([1]; 60 μg/day sc, Day 1, n = 8, mean ± SD): 43.3 ± 18.1 ng·h/mL | Cmax ([1]; 60 μg/day sc, Day 1, n = 8, plasma): 42.9 ± 30.3 ng/mL | Tmax ([1]; 60 μg/day sc, Day 14, n = 7, median): 19.8 min | AUC(0–∞) ([1]; 80 μg/day sc, Day 1, n = 8, mean ± SD): 64.2 ± 56.1 ng·h/mL | Cmax ([1]; 80 μg/day sc, Day 1, n = 8, plasma): 124 ± 105 ng/mL | accumulation in plasma ([1]; after 14 consecutive daily administrations, day 14 vs day 1): absence of accumulation | Tmax ([1]; human, plasma, sc, 10 μg/day, 10 μg/day sc, Day 1, n = 4, median, read-out: Tmax): 19.8 min | Tmax ([1]; human, plasma, sc, 10 μg/day, 10 μg/day sc, Day 14, n = 4, median, read-out: Tmax): 5.4 min | Tmax ([1]; human, plasma, sc, 20 μg/day, 20 μg/day sc, Day 1, n = 8, median, read-out: Tmax): 7.8 min | Tmax ([1]; human, plasma, sc, 20 μg/day, 20 μg/day sc, Day 14, n = 7, median, read-out: Tmax): 10.2 min | Tmax ([1]; human, plasma, sc, 40 μg/day, 40 μg/day sc, Day 1, n = 8, median, read-out: Tmax): 10.2 min | Tmax ([1]; human, plasma, sc, 60 μg/day, 60 μg/day sc, Day 1, n = 8, median, read-out: Tmax): 19.8 min | Tmax ([1]; human, plasma, sc, 80 μg/day, 80 μg/day sc, Day 1, n = 8, median, read-out: Tmax): 10.2 min | Tmax ([1]; human, plasma, sc, 80 μg/day, 80 μg/day sc, Day 14, n = 8, median, read-out: Tmax): 10.8 min | AUC(0-inf) ([1]; human, plasma, 10 μg/day sc, Day 14, n = 4, mean ± SD): 2.02 ± 2.41 ng·h/mL | AUC(0-inf) ([1]; human, plasma, 20 μg/day sc, Day 14, n = 7, mean ± SD): 4.63 ± 3.29 ng·h/mL | AUC(0-inf) ([1]; human, plasma, 40 μg/day sc, Day 14, n = 8, mean ± SD): 12.5 ± 4.75 ng·h/mL | AUC(0-inf) ([1]; human, plasma, 60 μg/day sc, Day 14, n = 7, mean ± SD): 58.8 ± 30.3 ng·h/mL | AUC(0-inf) ([1]; human, plasma, 80 μg/day sc, Day 14, n = 8, mean ± SD): 51.9 ± 51.6 ng·h/mL | Cmax ([1]; human, 20 μg/day sc, Day 14, n = 7, plasma, read-out: Cmax): 18.3 ± 6.78 ng/mL | Cmax ([1]; human, 40 μg/day sc, Day 14, n = 8, plasma, read-out: Cmax): 23.6 ± 5.5 ng/mL | Cmax ([1]; human, 60 μg/day sc, Day 14, n = 7, plasma, read-out: Cmax): 44.9 ± 17.9 ng/mL | Cmax ([1]; human, 80 μg/day sc, Day 14, n = 8, plasma, read-out: Cmax): 63.5 ± 28.3 ng/mL
